Assay results reported in PubChem BioAssay (NCI).
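Where inhibition never reached the appropriate level, the endpoint shown equals the highest concentration tested. Otherwise, values were interpolated linearly from a five-concentration, 48-hour dose response in 96-well plates. At the TGI there is no net growth.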

How the values were obtained:
Test in all cases: NCI tumour cell line growth inhibition, 48 h
A498 renal = tested on: A498 renal
CCRF-CEM leukemia = tested on: CCRF-CEM leukemia
HCT-116 colon = tested on: HCT-116 colon
HOP-62 NSCLC = tested on: HOP-62 NSCLC
HOP-92 NSCLC = tested on: HOP-92 NSCLC
MDA-MB-435 = tested on: MDA-MB-435
MDA-N = tested on: MDA-N
MOLT-4 leukemia = tested on: MOLT-4 leukemia
NCI/ADR-RES ovarian = tested on: NCI/ADR-RES ovarian
OVCAR-5 ovarian = tested on: OVCAR-5 ovarian
UACC-257 melanoma = tested on: UACC-257 melanoma

In the case of `COc1cc(OC)cc(Oc2nc3ccccc3nc2C(F)(F)F)c1`, the TGI (A498 renal) is reported as 73.9 µM, the TGI (CCRF-CEM leukemia) is reported as > 100 µM and the TGI (HCT-116 colon) is reported as > 100 µM. The TGI (HOP-62 NSCLC) was > 100 µM, the TGI (HOP-92 NSCLC) was > 100 µM and the TGI (MDA-MB-435) was > 100 µM. For the same molecule, the TGI (MDA-N) was > 100 µM, the TGI (MOLT-4 leukemia) was > 100 µM and the TGI (NCI/ADR-RES ovarian) was > 100 µM. The TGI (OVCAR-5 ovarian) was > 100 µM and the TGI (UACC-257 melanoma) was > 100 µM.
